Consider 49 molecules from ChEMBL document CHEMBL3585311, “Computational design and chemometric QSAR modeling of Plasmodium falciparum carbonic anhydrase inhibitors” (Bioorg Med Chem Lett, 2014).

Each structure is given as a SMILES string.

This test in a line: Inhibition of Plasmodium falciparum recombinant carbonic anhydrase.
For the molecule `NS(=O)(=O)c1ccc(Nc2nocc2Cl)cc1`, the Ki (as a rule, the dissociation constant of the complex between target and ligand, obtained from inhibition or displacement) amounted to 0.164 µM.
Take `CCN(CC)C(=S)SNCc1ccc(S(N)(=O)=O)cc1`: the Ki was 8.39 µM.
For `COc1cc(CC(=O)Nc2ccccc2S(N)(=O)=O)c2ccccc2c1Cl`, the inhibition constant Ki was found to be 4.28 µM.
Regarding `CCN(CC)C(=S)SNc1ccc(S(N)(=O)=O)cc1`, the Ki was determined as 3 µM.
For `NS(=O)(=O)c1ccc(NC(=O)Nc2ccc(Cl)c(Cl)c2)cc1`, the Ki came to 5.58 µM.
`NS(=O)(=O)c1ccccc1NC(=O)N(c1ccccc1)c1cccc(Cl)c1`: the Ki stood at 1.65 µM.
On to `NS(=O)(=O)c1ccc(NC(=O)c2cc3ccccc3oc2=O)cc1`, for which the Ki amounted to 5.82 µM.
The figure for `NS(=O)(=O)c1cc(S(N)(=O)=O)c(C(F)(F)F)cc1NC(=O)c1cc2ccccc2oc1=O` is 9.03 µM.
Regarding `Cc1ccc(NC(=O)NC(=S)Nc2ccc(S(N)(=O)=O)cc2)s1`, the Ki was found to be 0.505 µM.
Consider `NS(=O)(=O)c1ccc(/N=C/c2ccc(Br)c3ccccc23)cc1`, for which the inhibition constant (Ki) stood at 4.16 µM.
The figure for `Cc1ccc(C)c(N(C(=O)Nc2ccccc2S(N)(=O)=O)c2ccccc2)c1F` is 3.32 µM.
`NS(=O)(=O)c1ccc(CCNC(=O)c2cc3ccccc3oc2=O)cc1`: the Ki was 13.2 µM.
On to `Cc1cc(Cl)cc(C)c1NC(=O)NC(=S)Nc1ccc(S(N)(=O)=O)cc1`, for which the inhibition constant Ki stood at 0.596 µM.
The figure for `CC(F)(F)Nc1ccc(S(N)(=O)=O)cc1` is 0.74 µM; for `NS(=O)(=O)c1ccc(NC(=S)NC(=O)Nc2cccc(F)c2)cc1` it is 0.424 µM; for `NC(=S)Nc1ccc(S(N)(=O)=O)cc1` it is 2.1 µM.
With `NS(=O)(=O)c1ccc(Nc2ncsc2Cl)cc1` the figure was 0.164 µM; with `NS(=O)(=O)c1nnc(NS(=O)(=O)c2c(F)c(F)c(F)c(F)c2F)s1`, 2.58 µM.
With `CC(Cl)(Cl)c1ccc(NC(=O)NC(=S)Nc2ccc(S(N)(=O)=O)cc2)cc1` the figure was 0.452 µM.
`COC(=O)NS(=O)(=O)c1ccc(NC(=S)Nc2ccc(S(N)(=O)=O)cc2)cc1`: the Ki was found to be 4.62 µM.
With `Cc1cc(F)c(C)c(NC(=O)NC(=S)Nc2ccc(S(N)(=O)=O)cc2)c1`, the inhibition constant (Ki) was determined as 0.518 µM.
With `NS(=O)(=O)c1ccc(NC(=S)NC(=O)Nc2ccc(Cl)c(Cl)c2)cc1` the figure was 0.18 µM; with `NS(=O)(=O)c1ccc(NC(=S)NC(=O)Nc2ccc(Cl)cc2)cc1`, 0.327 µM.
With `NS(=O)(=O)c1nnc(NS(=O)(=O)C(F)(F)C(F)(F)C(F)(F)C(F)(F)C(F)(F)C(F)(F)C(F)(F)C(F)(F)F)s1` the figure was 0.192 µM; with `CCc1c(Cl)ccc(NC(=O)NC(=S)Nc2ccc(S(N)(=O)=O)cc2)c1Cl`, 0.464 µM; with `COc1ccc2oc(=O)cc(CC(=O)Nc3cccc(S(N)(=O)=O)c3)c2c1`, 4.58 µM.
As to `Cc1c(NC(=O)NC(=S)Nc2ccc(S(N)(=O)=O)cc2)cn2ncccc12`, the Ki stood at 0.433 µM.
Take `NS(=O)(=O)c1ccccc1NS(=O)(=O)c1c(F)c(F)c(F)c(F)c1F`: the Ki amounted to 3.06 µM.
Regarding `NS(=O)(=O)c1nnc(NC(=O)c2c(F)c(F)c(F)c(F)c2F)s1`, the Ki is 3.44 µM.
For `COc1ccc2oc(=O)cc(CC(=O)c3cc(C(F)(F)F)c(S(N)(=O)=O)cc3S(N)(=O)=O)c2c1`, the Ki stood at 2.52 µM.
With `NS(=O)(=O)c1ccc(Nc2cscn2)cc1`, the Ki came out at 0.237 µM.
For `NS(=O)(=O)c1ccc(NS(=O)(=O)c2ccc(NC(=O)N(c3ccccc3)c3ccccc3)cc2)cc1`, the Ki is 16.5 µM.
The figure for `NS(=O)(=O)c1ccc(NC(=S)NC(=O)Nc2ccc(CC(Cl)Cl)cc2)cc1` is 0.756 µM; for `NS(=O)(=O)c1ccccc1NC(=O)N(c1ccccc1)c1ccccc1` it is 1.99 µM.
In the case of `COc1ccc2cncc(CC(=O)Nc3ccccc3S(N)(=O)=O)c2c1`, the Ki is 2.66 µM.
Take `NS(=O)(=O)c1ccc(NC(=O)c2ccc(S(N)(=O)=O)cc2)cc1`: the Ki turned out to be 3.05 µM.
Take `CC(C)(O)Nc1ccc(S(N)(=O)=O)cc1`: the Ki turned out to be 2.22 µM.
The figure for `NS(=O)(=O)c1ccc(CNC(=O)N(c2ccccc2)c2ccccc2)cc1` is 6.03 µM.
On to `NS(=O)(=O)c1ccc(CNC(=O)c2cc3ccccc3oc2=O)cc1`, for which the inhibition constant Ki turned out to be 5.05 µM.
For `Cc1cc(C)cc(N(C(=O)Nc2ccccc2S(N)(=O)=O)c2ccccc2)c1`, the Ki stood at 4.09 µM.
With `COc1ccc2oc(=O)cc(CC(=O)Nc3ccccc3S(N)(=O)=O)c2c1` the figure was 1.44 µM; with `Cc1cc(NC(=O)NC(=S)Nc2ccc(S(N)(=O)=O)cc2)c(Cl)c(C)c1Cl`, 0.514 µM.
The figure for `NS(=O)(=O)c1ccccc1NC(=O)c1cc2ccccc2oc1=O` is 18.5 µM; for `NS(=O)(=O)c1nnc(NC(=S)NC(=O)Nc2ccccc2)s1` it is 6.73 µM.
The figure for `COc1ccc2oc(=O)cc(CC(=O)NNc3ccc(S(N)(=O)=O)cc3)c2c1` is 3.51 µM; for `Cn1nc(S(N)(=O)=O)s/c1=N/C(=O)c1c(F)c(F)c(F)c(F)c1F` it is 6.87 µM.
As to `NS(=O)(=O)c1ccc(NNC(=O)c2cc3ccccc3oc2=O)cc1`, the inhibition constant Ki amounted to 4.06 µM.
With `NS(=O)(=O)c1ccccc1NC(=O)N(c1ccccc1)c1ccc(F)cc1` the figure was 2.26 µM; with `NS(=O)(=O)c1ccc(Nc2ncc(Cl)s2)cc1`, 0.164 µM.
